Reference: paper PMC8620685, “Effect of Selected Silyl Groups on the Anticancer Activity of 3,4-Dibromo-5-Hydroxy-Furan-2(5H)-One Derivatives” (Pharmaceuticals, 2021)
Like-named read-outs stand apart in the source and are kept apart here.

Columns and labels:
HCT 116 wt = experiment: MTT assay, HCT 116 wt; assay type: cell-based, human
Procedure: (§1) The in vitro antitumor activities of the MBA and its derivatives (Table 2) were assayed against a panel of human cancer cell lines (HCT116, HCT-116 ^−/−p53, HT-29, MCF-7, SJSA-1, U2OS, HepG2 and Hep3B) using the MTT assay. As a reference drug we used 5-fluorouracil (5-FU). […] On the basis of in vitro antiproliferative activities, compounds 3b and 3c were selected for further mechanistic studies in the HCT-116 cell line.
(§2) Human cells lines: colon cancer (HCT-116 wt, HT-29), non-small lung carcinoma (A549), and bronchial epithelial cells (BEAS-2B) were obtained from American Type Culture Collection (ATCC, Manassas, VA, USA). Isogenic cell line HCT 116 p53^−/− (deleted both p53 alleles) were a gift from Dr. Bert Vogelstein. Other cell lines, namely MCF-7, SJSA-1, U2OS, HepG2, and Hep3B were received from the collection stored at Centre of Biotechnology of Silesian University of Technology. All cells were grown in DMEM with a high glucose medium (Sigma-Aldrich, Taufkirchen, Germany) supplemented with 10% (v/v) inactivated fetal bovine serum (FBS) (EURx, Gdańsk, Poland) and 1% antibiotics (10,000 μg/mL of streptomycin and 10,000 units/ml of penicillin) (Sigma-Aldrich, Taufkirchen, Germany) at 37 °C in humidified 5% CO2. The maximum concentration of DMSO in the culture media was 0.4%.
(§3) 5 × 10^3 cells per well for the MCF-7 cell line and 2.5 × 10^3 cells per well for the other cell lines were seeded in 96-well plates to adhere for 24 h. Afterward, the cells were treated with tested compounds. After 72 hours of incubation, 50 μL 0.5 mg/ml solution of MTT (3-(4,5-dimethylthiazol-2-yl)-2,5-diphenyl-2H-tetrazolium bromide) were added to each well and the plates were incubated for 3 h at 37 °C. Next, the MTT solution was removed from the plates and formed formazan crystals were dissolved in 2-propanol (Avantor Performance Materials, Gliwice, Poland) containing 0.04 M hydrochloric acid (Avantor Performance Materials, Gliwice, Poland). The absorbance was measured at 570 nm wavelength using a multiwall plate reader (BioTek, Winooski, VT, USA). The experiment was performed at a minimum of 3 independent replicates. Cell viability was set as a percentage versus vehicle control. IC50 was defined as a concentration of a drug that decreased cell viability by 50% relative to the untreated control.

MCF-7 = experiment: MTT assay, MCF-7; assay type: cell-based, human
Procedure: as §1, §2, §3

HCT 116 p53−/− = experiment: MTT assay, HCT 116 p53−/−; assay type: cell-based; details: Homo sapiens, read-out: IC50 (cytotoxicity), HCT 116 p53−/−
Procedure: as §1, §2, §3

HT-29 = experiment: MTT assay, HT-29; assay type: cell-based; details: Homo sapiens, read-out: IC50 (cytotoxicity), HT-29
Procedure: as §1, §2, §3

U2OS = experiment: MTT assay, U2OS; assay type: cell-based; details: Homo sapiens, MTT, 72 h incubation, read-out: IC50 (cytotoxicity), U2OS
Procedure: as §1, §2, §3

Hep3B = experiment: MTT assay, Hep3B; assay type: cell-based; details: Homo sapiens, MTT, 72 h incubation, read-out: IC50 (cytotoxicity), Hep3B
Procedure: as §1, §2, §3

SJSA-1 = experiment: MTT assay, SJSA-1; assay type: cell-based; details: Homo sapiens, SJSA-1; MTT, 72 h incubation; read-out: IC50 (cytotoxicity), SJSA-1
Procedure: as §1, §2, §3

HCT-116 cells = experiment: Annexin V-FITC/PI apoptosis assay; assay type: cell-based, human; details: HCT-116, statement in discussion
Procedure: To verify this thesis, we utilized annexin-V/PI double staining of cells, which were subsequently subjected to flow cytometric analysis.
The HCT 116 cells were seeded in 6-well plate (Nunc, ThermoFisher, Waltham, MA, USA) at a density of 5 × 10^4 cells/well and allowed to attach. After 24 h the medium was replaced with tested compounds. The cells were then incubated for 24 h at 37 °C. Next, both floating and adherent cells were harvested and centrifuged at 600× g. The cells were washed with PBS (phosphate buffered saline) (Sigma-Aldrich, Taufkirchen, Germany) and we followed instructions from the manufacturer of the Annexin V-FITC Apoptosis Detection Kit (Biotool, Jupiter, FL, USA). Fluorescence was measured using a Becton Dickinson FACS Aria III sorter (BD Company, San Diego, CA, USA). Experiments were repeated at least twice. Data were analyzed using FCE Express 7 Software (DeNovo Software, Pasadena, CA, USA).

HepG2 = experiment: MTT assay, HepG2; assay type: cell-based; details: Homo sapiens, HepG2; MTT, 72 h incubation; read-out: IC50 (cytotoxicity), HepG2
Procedure: as §1, §2
as §3, with “The experiment was performed at a minimum of 3 independent replicates. Cell viability was set as a percentage versus vehicle control. IC50 was defined as a concentration of a drug that decreased cell viability by 50% relative to the untreated control.” left out

[1] = MTT assay, normal bronchial epithelium cell line BEAS-2B; assay type: cell-based; details: human, BEAS-2B cells (noncancerous bronchial epithelial cells); MTT, 72 h incubation; noncancerous cells; read-out: IC50 (cytotoxicity), BEAS-2B
Procedure: (§4) One of the major drawbacks of currently used anticancer drugs is their low selectivity, which often leads to undesired side effects that may be harmful to patients. Overcoming this challenging task requires special attention at the pre-clinical development level. To check whether silyl group incorporation may affect the selectivity of compounds towards cancer cells, MBA and all its new silyl derivatives were tested for their efficacy on noncancerous BEAS-2B and cancerous A549 cells line. […] In contrast, compounds 3a and 3d were more cytotoxic to A549 cells with SI values 6.05 and 1.72, respectively. Strikingly, those two compounds have similar cLogP values 3.08 and 3.22, respectively.
as §2, §3

A549 = experiment: MTT assay, NSCLC cell line A549; assay type: cell-based, human; details: for IC50: Homo sapiens, A549, MTT, 72 h incubation, read-out: IC50 (cytotoxicity), A549; for SI: selectivity, A549 versus BEAS-2B
Procedure: as §4, §2, §3

[2] = Homo sapiens, HCT-116, 72 h, read-out: IC50 (cytotoxicity), HCT 116 wt, MTT, 72 h incubation
[3] = Homo sapiens, MCF7, 72 h, read-out: IC50 (cytotoxicity), MCF-7, MTT, 72 h incubation

Compound	IC50 (HCT 116 wt; Homo sapiens, HCT-116, 72 h, MTT, 72 h incubation, read-out: IC50 (cytotoxicity), HCT 116 wt)	IC50 (MCF-7; Homo sapiens, MCF7, 72 h, MTT, 72 h incubation, read-out: IC50 (cytotoxicity), MCF-7)	IC50 (HCT 116 p53−/−; HCT-116, MTT, 72 h incubation)	IC50 (HT-29; HT-29, MTT, 72 h incubation)	IC50 (U2OS)	IC50 (HCT 116 wt; [2])	IC50 (HCT 116 wt; human, 72 h)	IC50 (Hep3B)	IC50 (MCF-7; [3])	IC50 (SJSA-1)	IC50 (HCT 116 p53−/−; HCT-116, 72 h)	IC50 (HT-29; HT-29, 72 h)	induction of apoptosis / cell death in HCT-116 (HCT-116 cells)	IC50 (HepG2)	IC50 at 72 h [1]	IC50 (A549)	SI (A549)	IC50 (MCF-7; human, 72 h)
O=c1[nH]cc(F)c(=O)[nH]1 [5FU, 5-fluorouracil, reference compound]	6.3 ± 1 µM	29.7 ± 1.4 µM	13.4 ± 1.5 µM	32.8 ± 4.7 µM	89.8 ± 2.1 µM													
CC(C)(C)[Si](C)(C)OC1OC(=O)C(Br)=C1Br (stereo not drawn) [Compound 3a, 3,4-Dibromo-5-(tert-butyldimethylsilyloxy)-furan-2(5H)-one]						1.4 µM	1.3 ± 0.12 µM	135 ± 6.1 µM	186 ± 14.2 µM	196 ± 5.4 µM	21.4 ± 3.4 µM	88.7 ± 8.2 µM	failed to induce apoptosis	135 ± 6 µM	142 ± 23.1 µM	23.4 ± 6.6 µM	6.05	
CC[Si](CC)(CC)OC1OC(=O)C(Br)=C1Br (stereo not drawn) [Compound 3d, 3,4-Dibromo-5-(trietylsilyloxy)-furan-2(5H)-one]						1.6 ± 0.4 µM			89 µM		4.4 ± 0.4 µM				8.1 ± 1.2 µM	4.7 ± 0.1 µM	1.72	89.2 ± 6 µM
